Data taken from ChEMBL document CHEMBL5212743, “Selectivity Literature for EUbOPEN Chemogenomics Library wave 3” (2023).
pEC50, pIC50, pKd, pKi: −log10 of the molar value.

Key:
Activin receptor type-1 = Activin receptor type-1 (Homo sapiens, UniProt Q04771); test: Selectivity interaction (KinomeScan (DiscoverX, competition-binding assay)) EUB0000207b ACVR1
[1] = target: T1, Histone-lysine N-methyltransferase KMT5C (Homo sapiens, UniProt Q86Y97); test: Selectivity interaction (Methyltransferase panel (radioactive enzyme assay)) EUB0000216b SUV420H2
[2] = target: T2, Histone-lysine N-methyltransferase 2A (Homo sapiens, UniProt Q03164); test: Selectivity interaction (Methyltransferase panel (radioactive enzyme assay)) EUB0000216b MLL
[3] = target: T3, Histone-lysine N-methyltransferase SUV39H2 (Homo sapiens, UniProt Q9H5I1); test: Selectivity interaction (Methyltransferase panel (radioactive enzyme assay)) EUB0000216b SUV39H2
[4] = target: T4, Histone-lysine N-methyltransferase EHMT1 (Homo sapiens, UniProt Q9H9B1); test: Selectivity interaction (Methyltransferase panel (radioactive enzyme assay)) EUB0000216b EHMT1
[5] = target: T5, Histone-lysine N-methyltransferase EZH2 (Homo sapiens, UniProt Q15910); test: Selectivity interaction (Methyltransferase panel (radioactive enzyme assay)) EUB0000216b EZH2
[6] = target: T6, Histone-lysine N-methyltransferase SETDB1 (Homo sapiens, UniProt Q15047); test: Selectivity interaction (Methyltransferase panel (radioactive enzyme assay)) EUB0000216b SETDB1
[7] = target: T7, Histone-lysine N-methyltransferase EHMT2 (Homo sapiens, UniProt Q96KQ7); test: Selectivity interaction (Methyltransferase panel (radioactive enzyme assay)) EUB0000216b EHMT2
[8] = target: T8, Protein arginine N-methyltransferase 5 (Homo sapiens, UniProt O14744); test: Selectivity interaction (Methyltransferase panel (radioactive enzyme assay)) EUB0000216b PRMT5
[9] = target: T9, Histone-lysine N-methyltransferase SETD7 (Homo sapiens, UniProt Q8WTS6); test: Selectivity interaction (Methyltransferase panel (radioactive enzyme assay)) EUB0000216b SETD7
T9 sequence (Q8WTS6 whole entry): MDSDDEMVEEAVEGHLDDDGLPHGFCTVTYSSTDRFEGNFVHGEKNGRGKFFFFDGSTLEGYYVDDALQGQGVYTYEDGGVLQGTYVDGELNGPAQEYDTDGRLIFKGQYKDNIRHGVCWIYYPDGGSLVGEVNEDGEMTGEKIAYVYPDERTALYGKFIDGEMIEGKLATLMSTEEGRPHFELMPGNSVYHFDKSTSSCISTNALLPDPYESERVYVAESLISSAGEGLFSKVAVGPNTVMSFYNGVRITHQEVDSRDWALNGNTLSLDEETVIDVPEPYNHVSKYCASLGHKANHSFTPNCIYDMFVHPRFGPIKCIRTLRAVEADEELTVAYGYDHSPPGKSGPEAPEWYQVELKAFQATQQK

[10] = target: T10, N-lysine methyltransferase KMT5A (Homo sapiens, UniProt Q9NQR1); test: Selectivity interaction (Methyltransferase panel (radioactive enzyme assay)) EUB0000216b SETD8
T10 sequence (Q9NQR1 whole entry): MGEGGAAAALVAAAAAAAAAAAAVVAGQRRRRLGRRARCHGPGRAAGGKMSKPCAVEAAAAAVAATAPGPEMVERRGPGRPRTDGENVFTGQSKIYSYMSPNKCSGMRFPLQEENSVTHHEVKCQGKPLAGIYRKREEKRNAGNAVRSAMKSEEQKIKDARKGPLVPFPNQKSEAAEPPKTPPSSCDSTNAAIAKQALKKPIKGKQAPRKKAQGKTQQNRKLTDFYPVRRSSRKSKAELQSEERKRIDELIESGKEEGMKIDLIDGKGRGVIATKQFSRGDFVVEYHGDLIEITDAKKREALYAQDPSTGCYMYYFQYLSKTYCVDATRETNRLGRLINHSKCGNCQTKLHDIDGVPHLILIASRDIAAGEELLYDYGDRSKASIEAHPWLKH

[11] = target: T11, Alpha-1A adrenergic receptor (Homo sapiens) (UniProt P35348); test: Selectivity interaction (Receptor panel (Ricerca)) EUB0000216b ADRA1A; conditions: at 1 µM
T11 sequence (whole entry): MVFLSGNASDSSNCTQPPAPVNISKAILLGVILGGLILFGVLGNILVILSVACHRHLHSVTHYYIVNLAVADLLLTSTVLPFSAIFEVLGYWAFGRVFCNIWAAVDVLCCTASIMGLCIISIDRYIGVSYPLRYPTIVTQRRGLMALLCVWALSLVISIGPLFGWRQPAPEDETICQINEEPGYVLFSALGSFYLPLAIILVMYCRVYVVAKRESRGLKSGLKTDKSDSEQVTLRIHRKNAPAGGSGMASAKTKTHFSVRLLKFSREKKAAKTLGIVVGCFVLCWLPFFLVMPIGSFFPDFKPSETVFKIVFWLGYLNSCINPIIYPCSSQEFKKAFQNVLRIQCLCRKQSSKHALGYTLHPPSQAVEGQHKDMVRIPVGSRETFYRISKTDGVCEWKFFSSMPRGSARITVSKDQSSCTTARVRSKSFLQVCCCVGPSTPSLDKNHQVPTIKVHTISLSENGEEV

[12] = target: T12, Protein arginine N-methyltransferase 3 (Homo sapiens, UniProt O60678); test: Selectivity interaction (Methyltransferase panel (radioactive enzyme assay)) EUB0000216b PRMT3
[13] = target: Motilin receptor (Homo sapiens) (UniProt O43193); test: Selectivity interaction (Enzyme panel (ion channels, GPCRs, other targets)) EUB0000196bCl MLN
[14] = target: Kappa-type opioid receptor (Homo sapiens, UniProt P41145); test: Selectivity interaction (Enzyme panel (ion channels, GPCRs, other targets)) EUB0000196bCl OPRK1
[15] = target: Histone-lysine N-methyltransferase KMT5B (Homo sapiens, UniProt Q4FZB7); test: Selectivity interaction (Methyltransferase panel) EUB0000196bCl SUV420H1
[16] = target: T7, Histone-lysine N-methyltransferase EHMT2; test: Selectivity interaction (Methyltransferase panel) EUB0000196bCl EHMT2
[17] = target: DNA (cytosine-5)-methyltransferase 1 (Homo sapiens, UniProt P26358); test: Selectivity interaction (Methyltransferase panel) EUB0000196bCl DNMT1
[18] = target: T9, Histone-lysine N-methyltransferase SETD7; test: Selectivity interaction (ITC) EUB0000196bCl SETD7
[19] = target: Protein arginine N-methyltransferase 1 (Homo sapiens, UniProt Q99873); test: Selectivity interaction (Methyltransferase panel) EUB0000196bCl PRMT1
[20] = target: T10, N-lysine methyltransferase KMT5A; test: Selectivity interaction (Methyltransferase panel) EUB0000196bCl SETD8
[21] = target: Histone-lysine N-methyltransferase SETD2 (Homo sapiens, UniProt Q9BYW2); test: Selectivity interaction (Methyltransferase panel) EUB0000196bCl SETD2
[22] = target: T6, Histone-lysine N-methyltransferase SETDB1; test: Selectivity interaction (Methyltransferase panel) EUB0000196bCl SETDB1
[23] = target: N-lysine methyltransferase SMYD2 (Homo sapiens, UniProt Q9NRG4); test: Selectivity interaction (Methyltransferase panel) EUB0000196bCl SMYD2
[24] = target: T13, Histone-lysine N-methyltransferase EZH1 (Homo sapiens, UniProt Q92800); test: Selectivity interaction (Methyltransferase panel) EUB0000196bCl EZH1
T13 sequence (Q92800 whole entry): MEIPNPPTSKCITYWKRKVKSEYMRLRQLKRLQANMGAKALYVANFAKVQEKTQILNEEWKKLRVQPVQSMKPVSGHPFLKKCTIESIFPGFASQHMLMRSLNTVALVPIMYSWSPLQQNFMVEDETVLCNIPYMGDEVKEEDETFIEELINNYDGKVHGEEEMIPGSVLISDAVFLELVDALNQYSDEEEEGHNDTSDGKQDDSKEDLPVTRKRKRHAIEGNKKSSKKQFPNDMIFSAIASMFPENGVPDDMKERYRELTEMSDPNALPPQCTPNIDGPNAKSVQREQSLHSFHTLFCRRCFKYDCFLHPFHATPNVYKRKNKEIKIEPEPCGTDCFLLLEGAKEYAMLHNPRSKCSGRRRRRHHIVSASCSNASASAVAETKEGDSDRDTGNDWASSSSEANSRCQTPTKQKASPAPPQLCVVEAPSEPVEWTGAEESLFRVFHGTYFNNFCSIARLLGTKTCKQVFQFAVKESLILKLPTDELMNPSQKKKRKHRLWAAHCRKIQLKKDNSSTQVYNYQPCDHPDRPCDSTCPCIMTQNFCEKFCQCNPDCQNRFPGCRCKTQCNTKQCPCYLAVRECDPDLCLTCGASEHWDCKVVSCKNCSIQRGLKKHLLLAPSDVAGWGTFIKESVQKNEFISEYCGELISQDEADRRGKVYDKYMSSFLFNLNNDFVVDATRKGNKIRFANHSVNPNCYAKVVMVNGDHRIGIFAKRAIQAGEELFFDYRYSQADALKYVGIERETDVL

[25] = target: T3, Histone-lysine N-methyltransferase SUV39H2; test: Selectivity interaction (Methyltransferase panel) EUB0000196bCl SUV39H2
[26] = target: T8, Protein arginine N-methyltransferase 5; test: Selectivity interaction (Methyltransferase panel) EUB0000196bCl PRMT5
[27] = target: T12, Protein arginine N-methyltransferase 3; test: Selectivity interaction (Methyltransferase panel) EUB0000196bCl PRMT3
[28] = target: Protein arginine N-methyltransferase 8 (Homo sapiens, UniProt Q9NR22); test: Selectivity interaction (Methyltransferase panel) EUB0000196bCl PRMT8
[29] = target: T5, Histone-lysine N-methyltransferase EZH2; test: Selectivity interaction (Methyltransferase panel) EUB0000196bCl EZH2
[30] = target: T1, Histone-lysine N-methyltransferase KMT5C; test: Selectivity interaction (Methyltransferase panel) EUB0000196bCl SUV420H2
[31] = target: Histone-lysine N-methyltransferase, H3 lysine-79 specific (Homo sapiens, UniProt Q8TEK3); test: Selectivity interaction (Methyltransferase panel) EUB0000196bCl DOT1L
[32] = target: T2, Histone-lysine N-methyltransferase 2A; test: Selectivity interaction (Methyltransferase panel) EUB0000196bCl MLL
[33] = target: T4, Histone-lysine N-methyltransferase EHMT1; test: Selectivity interaction (Methyltransferase panel) EUB0000196bCl EHMT1
[34] = target: Histone-lysine N-methyltransferase NSD2 (Homo sapiens, UniProt O96028); test: Selectivity interaction (Methyltransferase panel) EUB0000196bCl NSD2
[35] = target: Bombesin receptor subtype-3 (Homo sapiens, UniProt P32247); test: Selectivity interaction (Enzyme panel (ion channels, GPCRs, other targets)) EUB0000196bCl BRS3
Adenosine receptor A2b = Adenosine receptor A2b (Homo sapiens, UniProt P29275); test: Selectivity interaction (Enzyme panel (ion channels, GPCRs, other targets)) EUB0000196bCl ADORA2B
[36] = target: Protein N-lysine methyltransferase METTL21A (Homo sapiens) (UniProt Q8WXB1); test: Selectivity interaction (Methyltransferase panel) EUB0000197b METTL21A
[37] = target: cGMP-dependent protein kinase 2 (Homo sapiens) (UniProt Q13237); test: Selectivity interaction (Enzyme panel (kinases, GPCRs, ion channels, transporters)) EUB0000197b PRKG2; conditions: at 10 µM
[38] = target: Serine/threonine-protein kinase BRSK1 (Homo sapiens) (UniProt Q8TDC3); test: Selectivity interaction (Enzyme panel (kinases, GPCRs, ion channels, transporters)) EUB0000197b BRSK1; conditions: at 10 µM
[39] = target: cAMP-dependent protein kinase catalytic subunit PRKX (Homo sapiens) (UniProt P51817); test: Selectivity interaction (Enzyme panel (kinases, GPCRs, ion channels, transporters)) EUB0000197b PRKX; conditions: at 10 µM
[40] = target: T14, 5-hydroxytryptamine receptor 2B (Homo sapiens, UniProt P41595); test: (§1) Selectivity interaction (Enzyme panel (kinases, GPCRs, ion channels, transporters)) EUB0000197b HTR2B; conditions: at 10 µM
[41] = target: Ribosomal protein S6 kinase alpha-4 (Homo sapiens) (UniProt O75676); test: Selectivity interaction (Enzyme panel (kinases, GPCRs, ion channels, transporters)) EUB0000197b RPS6KA4; conditions: at 10 µM
[42] = target: T14, 5-hydroxytryptamine receptor 2B; test: as §1
[43] = target: Mitogen-activated protein kinase kinase kinase 12 (Homo sapiens) (UniProt Q12852); test: Selectivity interaction (Enzyme panel (kinases, GPCRs, ion channels, transporters)) EUB0000197b DLK1; conditions: at 10 µM

T7 sequence (Q96KQ7 whole entry): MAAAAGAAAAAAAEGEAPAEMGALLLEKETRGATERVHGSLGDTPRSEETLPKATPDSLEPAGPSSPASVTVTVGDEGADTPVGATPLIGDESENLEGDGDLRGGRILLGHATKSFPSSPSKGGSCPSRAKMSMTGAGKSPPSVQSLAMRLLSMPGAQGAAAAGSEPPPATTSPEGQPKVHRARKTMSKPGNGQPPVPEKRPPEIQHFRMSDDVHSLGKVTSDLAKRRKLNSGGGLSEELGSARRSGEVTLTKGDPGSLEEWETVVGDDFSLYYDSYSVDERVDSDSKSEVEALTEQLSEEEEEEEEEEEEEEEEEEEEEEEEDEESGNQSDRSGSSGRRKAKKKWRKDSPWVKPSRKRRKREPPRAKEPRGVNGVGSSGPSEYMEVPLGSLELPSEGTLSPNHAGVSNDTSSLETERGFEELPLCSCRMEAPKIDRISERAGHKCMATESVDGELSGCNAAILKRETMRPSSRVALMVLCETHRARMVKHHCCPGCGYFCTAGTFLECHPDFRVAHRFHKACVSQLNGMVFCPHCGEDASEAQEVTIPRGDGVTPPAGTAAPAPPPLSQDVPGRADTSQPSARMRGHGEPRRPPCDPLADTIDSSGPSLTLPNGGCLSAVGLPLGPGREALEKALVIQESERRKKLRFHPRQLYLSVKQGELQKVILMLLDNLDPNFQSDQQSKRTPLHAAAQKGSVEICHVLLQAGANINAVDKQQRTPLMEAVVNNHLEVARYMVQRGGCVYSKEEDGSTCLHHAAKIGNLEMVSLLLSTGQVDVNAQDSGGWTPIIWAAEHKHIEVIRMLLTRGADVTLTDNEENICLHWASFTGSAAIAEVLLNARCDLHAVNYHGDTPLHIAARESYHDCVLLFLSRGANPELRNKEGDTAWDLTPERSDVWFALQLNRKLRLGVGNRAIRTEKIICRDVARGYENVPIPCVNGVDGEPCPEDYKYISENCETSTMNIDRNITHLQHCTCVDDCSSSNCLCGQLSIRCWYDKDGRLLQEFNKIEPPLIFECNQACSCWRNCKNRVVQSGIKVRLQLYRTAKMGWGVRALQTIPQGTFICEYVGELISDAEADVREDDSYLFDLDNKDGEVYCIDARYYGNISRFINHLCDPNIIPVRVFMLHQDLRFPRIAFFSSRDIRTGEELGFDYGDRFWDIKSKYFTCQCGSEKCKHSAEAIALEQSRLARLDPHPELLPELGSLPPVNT
T8 sequence (O14744 whole entry): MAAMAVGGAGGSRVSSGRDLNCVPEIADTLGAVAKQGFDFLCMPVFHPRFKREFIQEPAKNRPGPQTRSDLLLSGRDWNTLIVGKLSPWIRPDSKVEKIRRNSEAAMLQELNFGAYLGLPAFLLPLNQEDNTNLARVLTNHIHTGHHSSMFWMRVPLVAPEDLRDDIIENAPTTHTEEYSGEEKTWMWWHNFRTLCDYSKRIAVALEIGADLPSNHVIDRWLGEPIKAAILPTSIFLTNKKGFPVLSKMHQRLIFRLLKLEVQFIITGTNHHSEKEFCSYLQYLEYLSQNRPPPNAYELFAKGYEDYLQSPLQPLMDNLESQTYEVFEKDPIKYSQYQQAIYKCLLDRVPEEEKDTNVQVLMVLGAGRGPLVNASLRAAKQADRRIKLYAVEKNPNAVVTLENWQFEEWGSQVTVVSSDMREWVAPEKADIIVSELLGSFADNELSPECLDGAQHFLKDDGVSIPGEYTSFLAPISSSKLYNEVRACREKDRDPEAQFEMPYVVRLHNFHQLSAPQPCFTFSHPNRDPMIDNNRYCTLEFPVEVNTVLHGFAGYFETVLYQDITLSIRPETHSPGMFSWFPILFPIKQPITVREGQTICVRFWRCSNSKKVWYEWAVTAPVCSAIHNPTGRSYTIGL
T1 sequence (Q86Y97 whole entry): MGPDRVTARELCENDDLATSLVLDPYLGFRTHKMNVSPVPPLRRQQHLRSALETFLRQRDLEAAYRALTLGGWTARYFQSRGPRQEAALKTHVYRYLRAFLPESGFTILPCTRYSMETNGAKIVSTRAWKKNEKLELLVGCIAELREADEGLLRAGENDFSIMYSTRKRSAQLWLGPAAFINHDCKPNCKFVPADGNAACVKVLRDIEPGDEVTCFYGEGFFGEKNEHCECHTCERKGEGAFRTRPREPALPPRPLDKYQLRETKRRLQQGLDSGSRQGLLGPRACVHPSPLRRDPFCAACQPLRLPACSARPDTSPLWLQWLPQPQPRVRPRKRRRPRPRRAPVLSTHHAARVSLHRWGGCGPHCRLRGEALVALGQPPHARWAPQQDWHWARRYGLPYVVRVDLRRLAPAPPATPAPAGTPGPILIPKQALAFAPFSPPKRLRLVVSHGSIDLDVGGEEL
T14 sequence (P41595 whole entry): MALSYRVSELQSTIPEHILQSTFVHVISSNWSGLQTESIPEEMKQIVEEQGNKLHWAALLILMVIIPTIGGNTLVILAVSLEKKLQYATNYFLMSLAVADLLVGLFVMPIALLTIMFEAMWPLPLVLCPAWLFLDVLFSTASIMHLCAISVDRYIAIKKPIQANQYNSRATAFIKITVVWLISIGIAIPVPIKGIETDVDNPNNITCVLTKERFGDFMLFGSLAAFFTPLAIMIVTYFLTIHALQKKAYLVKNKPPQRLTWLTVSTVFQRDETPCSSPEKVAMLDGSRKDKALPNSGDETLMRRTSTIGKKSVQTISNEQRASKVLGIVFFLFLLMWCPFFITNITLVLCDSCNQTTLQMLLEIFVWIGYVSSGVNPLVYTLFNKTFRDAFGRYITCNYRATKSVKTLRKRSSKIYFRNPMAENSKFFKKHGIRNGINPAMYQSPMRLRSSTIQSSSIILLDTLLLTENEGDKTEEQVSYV
T12 sequence (O60678 whole entry): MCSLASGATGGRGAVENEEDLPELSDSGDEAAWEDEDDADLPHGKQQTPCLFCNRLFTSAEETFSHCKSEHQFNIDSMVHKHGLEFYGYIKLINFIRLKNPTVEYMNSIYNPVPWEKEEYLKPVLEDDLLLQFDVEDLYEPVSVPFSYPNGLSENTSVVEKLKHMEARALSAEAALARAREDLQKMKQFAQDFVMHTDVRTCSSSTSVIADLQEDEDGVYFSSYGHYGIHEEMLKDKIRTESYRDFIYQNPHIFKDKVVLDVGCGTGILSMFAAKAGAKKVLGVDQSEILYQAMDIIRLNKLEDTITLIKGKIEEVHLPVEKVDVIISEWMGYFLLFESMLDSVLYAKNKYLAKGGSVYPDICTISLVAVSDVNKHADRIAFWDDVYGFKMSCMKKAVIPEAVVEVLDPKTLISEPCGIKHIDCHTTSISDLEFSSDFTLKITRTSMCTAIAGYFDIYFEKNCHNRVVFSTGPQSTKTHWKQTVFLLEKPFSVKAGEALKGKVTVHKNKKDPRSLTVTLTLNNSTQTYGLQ
T4 sequence (Q9H9B1 whole entry): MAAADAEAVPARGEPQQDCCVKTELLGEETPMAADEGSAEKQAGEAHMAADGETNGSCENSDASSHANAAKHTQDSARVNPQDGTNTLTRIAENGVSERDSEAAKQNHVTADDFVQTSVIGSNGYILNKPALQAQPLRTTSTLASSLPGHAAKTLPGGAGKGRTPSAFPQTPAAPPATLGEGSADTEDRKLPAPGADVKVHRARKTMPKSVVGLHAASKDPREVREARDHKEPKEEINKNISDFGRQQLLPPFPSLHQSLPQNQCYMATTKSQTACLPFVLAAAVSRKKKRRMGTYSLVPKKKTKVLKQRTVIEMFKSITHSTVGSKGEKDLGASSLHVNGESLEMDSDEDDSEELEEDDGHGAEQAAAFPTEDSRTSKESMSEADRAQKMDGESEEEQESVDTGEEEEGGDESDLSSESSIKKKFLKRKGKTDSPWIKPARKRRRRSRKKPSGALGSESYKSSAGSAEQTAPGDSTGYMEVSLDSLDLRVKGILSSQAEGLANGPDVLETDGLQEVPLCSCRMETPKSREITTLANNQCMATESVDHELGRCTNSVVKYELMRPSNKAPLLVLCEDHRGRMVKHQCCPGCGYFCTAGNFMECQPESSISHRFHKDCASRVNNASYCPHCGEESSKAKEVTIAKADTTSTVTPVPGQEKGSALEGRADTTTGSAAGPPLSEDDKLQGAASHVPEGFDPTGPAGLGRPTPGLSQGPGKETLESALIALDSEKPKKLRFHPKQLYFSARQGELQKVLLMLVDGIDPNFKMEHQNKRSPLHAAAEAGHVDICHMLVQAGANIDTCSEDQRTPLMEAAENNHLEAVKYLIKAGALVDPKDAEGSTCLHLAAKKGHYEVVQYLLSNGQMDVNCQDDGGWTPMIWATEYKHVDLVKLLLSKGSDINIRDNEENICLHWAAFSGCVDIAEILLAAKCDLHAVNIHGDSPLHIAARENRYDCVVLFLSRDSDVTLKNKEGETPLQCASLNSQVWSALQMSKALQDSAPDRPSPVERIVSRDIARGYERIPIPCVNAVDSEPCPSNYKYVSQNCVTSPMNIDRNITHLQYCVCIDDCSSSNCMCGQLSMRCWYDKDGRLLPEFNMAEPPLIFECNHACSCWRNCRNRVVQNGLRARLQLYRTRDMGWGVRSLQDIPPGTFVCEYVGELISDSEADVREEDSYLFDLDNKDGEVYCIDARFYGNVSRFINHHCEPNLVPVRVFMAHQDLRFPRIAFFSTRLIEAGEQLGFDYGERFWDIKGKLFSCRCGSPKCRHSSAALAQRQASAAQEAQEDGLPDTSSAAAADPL
T3 sequence (Q9H5I1 whole entry): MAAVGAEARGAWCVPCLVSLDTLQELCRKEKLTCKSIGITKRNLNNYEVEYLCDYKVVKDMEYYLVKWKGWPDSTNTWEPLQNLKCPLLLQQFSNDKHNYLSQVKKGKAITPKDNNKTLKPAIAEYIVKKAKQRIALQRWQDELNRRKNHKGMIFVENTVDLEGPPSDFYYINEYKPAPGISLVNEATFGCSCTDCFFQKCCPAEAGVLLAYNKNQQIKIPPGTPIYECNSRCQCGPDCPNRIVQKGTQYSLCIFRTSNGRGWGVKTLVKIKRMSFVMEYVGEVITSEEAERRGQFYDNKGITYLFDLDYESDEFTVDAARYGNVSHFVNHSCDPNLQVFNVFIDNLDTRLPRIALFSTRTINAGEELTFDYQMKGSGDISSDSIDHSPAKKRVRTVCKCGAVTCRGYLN

COc1cc(Nc2ccnc3ccc(Br)cc23)cc(OC)c1OC
pKd (Activin receptor type-1): 6.01

CC(C)N(CCCNC(=O)Nc1ccc(C(C)(C)C)cc1)C[C@H]1O[C@@H](n2cc(Br)c3c(N)ncnc32)[C@H](O)[C@@H]1O
pIC50 [1]: < 4.00
pIC50 [2]: < 4.00
pIC50 [3]: < 4.00
pIC50 [4]: < 4.00
pIC50 [5]: < 4.00
pIC50 [6]: < 4.00
pIC50 [7]: < 4.00
pIC50 [8]: < 4.00
pIC50 [9]: < 4.00
pIC50 [10]: < 4.00
% of inhibition [11]: 22%
pIC50 [12]: < 4.00

O=C([C@@H](Cc1cccc(C(F)(F)F)c1)NS(=O)(=O)c1cc(F)c2c(c1)CCNC2)N1CCCC1
pKi [13]: 5.14
pKi [14]: 5.42
pEC50 [15]: < 5.00
pEC50 [16]: < 5.00
pEC50 [17]: < 5.00
pKd [18]: 7.74
pEC50 [19]: < 5.00
pEC50 [20]: < 5.00
pEC50 [21]: < 5.00
pEC50 [22]: < 5.00
pEC50 [23]: < 5.00
pEC50 [24]: < 5.00
pEC50 [25]: < 5.00
pEC50 [26]: < 5.00
pEC50 [27]: < 5.00
pEC50 [28]: < 5.00
pEC50 [29]: < 5.00
pEC50 [30]: < 5.00
pEC50 [31]: < 5.00
pEC50 [32]: < 5.00
pEC50 [33]: < 5.00
pEC50 [34]: < 5.00
pKi [35]: 5.09
pKi (Adenosine receptor A2b): 5.89

O=C(NCC(=O)N1CCCC1)Nc1ccc2cnccc2c1
% of control [36]: 60%
% of control [37]: 58%
% of control [38]: 56%
% of control [39]: 61%
% of control [40]: 69%
% of control [41]: 55%
pKi [42]: < 4.82
% of control [43]: 60%
